Laboratory results from ChEMBL document CHEMBL5346892, “Design and synthesis of benzochromene derivatives as AcrB inhibitors for the reversal of bacterial multidrug resistance” (Eur J Med Chem, 2023).

Experiments:
[1] = tested on: Escherichia coli; test: Synergistic antibacterial activity against wild type Escherichia coli BW25113 assessed as levofloxacin MIC at 32 microg/ml incubated for 18 hrs by broth dilution assay; type: functional; settings: dose 32 µg/ml
[2] = tested on: Escherichia coli; test: Synergistic antibacterial activity against wild type Escherichia coli BW25113 assessed as minocycline MIC at 16 microg/ml incubated for 18 hrs by broth dilution assay; type: functional; settings: dose 16 µg/ml
[3] = tested on: Escherichia coli; test: Synergistic antibacterial activity against wild type Escherichia coli BW25113 assessed as minocycline MIC at 64 microg/ml incubated for 18 hrs by broth dilution assay; type: functional; settings: dose 64 µg/ml
[4] = tested on: Escherichia coli; test: Synergistic antibacterial activity against wild type Escherichia coli BW25113 assessed as levofloxacin MIC at 64 microg/ml incubated for 18 hrs in presence of colistin by broth dilution assay; type: functional; settings: dose 64 µg/ml
[5] = tested on: Escherichia coli; test: Synergistic antibacterial activity against wild type Escherichia coli BW25113 assessed as minocycline MIC at 16 microg/ml incubated for 18 hrs in presence of colistin by broth dilution assay; type: functional; settings: dose 16 µg/ml
[6] = tested on: Escherichia coli; test: Synergistic antibacterial activity against wild type Escherichia coli BW25113 assessed as levofloxacin MIC at 4 microg/ml incubated for 18 hrs in presence of colistin by broth dilution assay; type: functional; settings: dose 4 µg/ml
[7] = tested on: Escherichia coli; test: Synergistic antibacterial activity against wild type Escherichia coli BW25113 assessed as minocycline MIC at 4 microg/ml incubated for 18 hrs in presence of colistin by broth dilution assay; type: functional; settings: dose 4 µg/ml
[8] = tested on: Escherichia coli; test: Synergistic antibacterial activity against wild type Escherichia coli BW25113 assessed as fold decrease in erythromycin MIC at 64 microg/ml incubated for 18 hrs by checkboard based microplate reader analysis; type: functional; settings: dose 64 µg/ml
[9] = tested on: Escherichia coli; test: Synergistic antibacterial activity against wild type Escherichia coli BW25113 assessed as fold decrease in erythromycin MIC at 16 to 64 microg/ml incubated for 18 hrs by checkboard based microplate reader analysis; type: functional; settings: dose 16-64 µg/ml
[10] = tested on: Escherichia coli; test: Synergistic antibacterial activity against wild type Escherichia coli BW25113 assessed as fold decrease in levofloxacin MIC at 64 microg/ml incubated for 18 hrs by checkboard based microplate reader analysis; type: functional; settings: dose 64 µg/ml
[11] = tested on: Escherichia coli; test: Synergistic antibacterial activity against wild type Escherichia coli BW25113 assessed as minocycline MIC at 8 microg/ml incubated for 18 hrs by broth dilution assay; type: functional; settings: dose 8 µg/ml
[12] = tested on: Escherichia coli; test: Synergistic antibacterial activity against wild type Escherichia coli BW25113 assessed as erythromycin MIC at 1 microg/ml incubated for 18 hrs in presence of colistin by broth dilution assay; type: functional; settings: dose 1 µg/ml
[13] = tested on: Escherichia coli; test: Synergistic antibacterial activity against wild type Escherichia coli BW25113 assessed as levofloxacin MIC at 0.5 microg/ml incubated for 18 hrs in presence of colistin by broth dilution assay; type: functional; settings: dose 0.5 µg/ml
[14] = tested on: Escherichia coli; test: Synergistic antibacterial activity against wild type Escherichia coli BW25113 assessed as minocycline MIC at 0.5 microg/ml incubated for 18 hrs in presence of colistin by broth dilution assay; type: functional; settings: dose 0.5 µg/ml
[15] = tested on: Escherichia coli; test: Synergistic antibacterial activity against wild type Escherichia coli BW25113 assessed as minocycline MIC at 1 microg/ml incubated for 18 hrs in presence of colistin by broth dilution assay; type: functional; settings: dose 1 µg/ml
[16] = tested on: Escherichia coli; test: Synergistic antibacterial activity against wild type Escherichia coli BW25113 assessed as minocycline MIC at 2 microg/ml incubated for 18 hrs in presence of colistin by broth dilution assay; type: functional; settings: dose 2 µg/ml
[17] = tested on: Escherichia coli; test: Synergistic antibacterial activity against wild type Escherichia coli BW25113 assessed as fold decrease in erythromycin MIC at 128 microg/ml incubated for 18 hrs by checkboard based microplate reader analysis; type: functional; settings: dose 128 µg/ml
[18] = tested on: Escherichia coli; test: Synergistic antibacterial activity against wild type Escherichia coli BW25113 assessed as fold decrease in erythromycin MIC at 8 to 128 microg/ml incubated for 18 hrs by checkboard based microplate reader analysis; type: functional; settings: dose 8-128 µg/ml
[19] = tested on: Escherichia coli; test: Synergistic antibacterial activity against wild type Escherichia coli BW25113 assessed as erythromycin MIC at 4 microg/ml incubated for 18 hrs in presence of colistin by broth dilution assay; type: functional; settings: dose 4 µg/ml
[20] = tested on: Escherichia coli; test: Synergistic antibacterial activity against wild type Escherichia coli BW25113 assessed as fold decrease in erythromycin MIC at 8 microg/ml incubated for 18 hrs by checkboard based microplate reader analysis; type: functional; settings: dose 8 µg/ml
[21] = target: T1, Multidrug efflux pump subunit AcrB (Escherichia coli (strain K12)) (UniProt P31224); test: Inhibition of Escherichia coli BW25113 AcrB assessed as inhibition of nile red efflux at 100 uM incubated for 15 mins
T1 sequence (whole entry): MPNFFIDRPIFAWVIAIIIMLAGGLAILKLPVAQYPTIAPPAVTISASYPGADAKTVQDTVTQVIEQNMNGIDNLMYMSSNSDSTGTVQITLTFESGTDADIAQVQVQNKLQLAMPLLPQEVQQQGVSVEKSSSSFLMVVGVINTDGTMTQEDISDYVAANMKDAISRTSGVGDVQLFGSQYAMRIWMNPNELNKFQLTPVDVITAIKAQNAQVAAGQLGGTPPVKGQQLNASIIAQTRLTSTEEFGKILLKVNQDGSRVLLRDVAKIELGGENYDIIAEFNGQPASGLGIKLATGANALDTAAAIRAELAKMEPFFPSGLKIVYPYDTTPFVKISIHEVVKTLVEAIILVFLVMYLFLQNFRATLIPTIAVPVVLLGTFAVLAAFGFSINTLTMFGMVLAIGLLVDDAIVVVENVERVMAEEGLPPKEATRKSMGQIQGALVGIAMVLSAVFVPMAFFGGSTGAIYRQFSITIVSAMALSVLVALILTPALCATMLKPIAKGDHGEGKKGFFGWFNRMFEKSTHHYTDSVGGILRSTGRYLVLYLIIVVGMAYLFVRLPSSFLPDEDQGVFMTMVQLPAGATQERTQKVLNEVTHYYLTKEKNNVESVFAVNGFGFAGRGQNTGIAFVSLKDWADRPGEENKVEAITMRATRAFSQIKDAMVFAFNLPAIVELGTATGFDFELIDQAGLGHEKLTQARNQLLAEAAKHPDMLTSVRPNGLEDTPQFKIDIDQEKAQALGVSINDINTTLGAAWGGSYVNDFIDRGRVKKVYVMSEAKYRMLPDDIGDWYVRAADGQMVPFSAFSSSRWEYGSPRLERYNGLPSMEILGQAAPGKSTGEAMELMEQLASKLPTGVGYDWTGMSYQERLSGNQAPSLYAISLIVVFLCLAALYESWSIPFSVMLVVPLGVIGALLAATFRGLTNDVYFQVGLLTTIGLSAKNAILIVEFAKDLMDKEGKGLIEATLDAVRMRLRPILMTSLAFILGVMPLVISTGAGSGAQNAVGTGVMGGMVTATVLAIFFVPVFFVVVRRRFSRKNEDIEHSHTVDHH

[22] = target: T1, Multidrug efflux pump subunit AcrB (Escherichia coli (strain K12)); test: Inhibition of Escherichia coli BW25113 AcrB assessed as inhibition of nile red efflux at 200 uM incubated for 15 mins
[23] = tested on: Escherichia coli; test: Synergistic antibacterial activity against wild type Escherichia coli BW25113 assessed as erythromycin MIC at 128 microg/ml incubated for 18 hrs in presence of colistin by broth dilution assay; type: functional; settings: dose 128 µg/ml
[24] = tested on: Escherichia coli; test: Synergistic antibacterial activity against wild type Escherichia coli BW25113 assessed as fold decrease in minocycline MIC at 64 microg/ml incubated for 18 hrs by checkboard based microplate reader analysis; type: functional; settings: dose 64 µg/ml

Row | SMILES | MIC [1] [µg/mL] | MIC [2] [µg/mL] | MIC [3] [µg/mL] | MIC [4] [µg/mL] | MIC [5] [µg/mL] | MIC [6] [µg/mL] | MIC [7] [µg/mL] | MIC [11] [µg/mL] | fold change (FC) [17] | also measured
1 | CC1(C)CCc2c(C(=O)N3CCOCC3)cc3c(OCCCOc4cccc(C(=O)O)c4)cccc3c2O1 | 0.016 | 2 | 1 | 0.008 | 0.5 | 0.032 | 0.5 | – | – | fold change (FC) [8]: 4; fold change (FC) [9]: 4; fold change (FC) [10]: 4
2 | CC1(C)CCc2c(C(=O)N3CCOCC3)cc3c(OCCN4CCN(c5ccccc5)CC4)cccc3c2O1 | 0.016 | 2 | 2 | 0.032 | – | – | – | 2 | 4 | MIC [12]: 16 µg/mL; MIC [13]: 0.032 µg/mL; MIC [14]: 1 µg/mL; MIC [15]: 0.5 µg/mL; MIC [16]: 0.5 µg/mL; fold change (FC) [18]: 16
3 | CC1(C)CCc2c(C(=O)N3CCOCC3)cc3c(OCCSc4ccc([N+](=O)[O-])cc4)cccc3c2O1 | 0.016 | 2 | 1 | 0.032 | 1 | 0.032 | 1 | 2 | – | MIC [19]: 8 µg/mL; fold change (FC) [20]: 4; inhibition [21]: 100%; inhibition [22]: 100%
4 | COc1ccc(OCCCOc2cccc3c4c(c(C(=O)N5CCOCC5)cc23)CCC(C)(C)O4)cc1 | 0.032 | 2 | 1 | 0.032 | 0.5 | – | – | 2 | 8 | MIC [23]: 8 µg/mL; fold change (FC) [24]: 4
